Converted amounts (≈) assume the structure as drawn.
Key:
Type in all cases: functional
[1] = Antiinflammatory activity against heat-induced albumin denaturation at […] preincubated for 15 mins before heat induction by UV-vis spectrophotometer analysis
Aspergillus flavus [2] = assay: Antimicrobial activity against Aspergillus flavus MTCC 873
Aspergillus niger [3] = assay: Antimicrobial activity against Aspergillus niger MTCC 281
Shigella flexneri [4] = assay: Antimicrobial activity against Shigella flexneri MTCC 1457
Escherichia coli [5] = assay: Antimicrobial activity against Escherichia coli MTCC 724
Klebsiella pneumoniae [6] = assay: Antimicrobial activity against Klebsiella pneumoniae MTCC 3384
Staphylococcus aureus [7] = assay: Antimicrobial activity against Staphylococcus aureus MTCC 96
Bacillus cereus [8] = assay: Antimicrobial activity against Bacillus cereus MTCC 8372
Aspergillus niger [9] = assay: Antimicrobial activity against Aspergillus niger MTCC 281 at 50 ug/ml after 24 hrs by agar disc diffusion method; conditions: MTCC 281, 24 h, read-out: DIZ
Aspergillus niger [10] = assay: Antimicrobial activity against Aspergillus niger MTCC 281 at 100 ug/ml after 24 hrs by agar disc diffusion method; conditions: MTCC 281, 24 h, read-out: DIZ
Aspergillus flavus [11] = assay: Antimicrobial activity against Aspergillus flavus MTCC 873 at 100 ug/ml after 24 hrs by agar disc diffusion method; conditions: MTCC 873, 24 h, read-out: DIZ
Aspergillus flavus [12] = assay: Antimicrobial activity against Aspergillus flavus MTCC 873 at 50 ug/ml after 24 hrs by agar disc diffusion method; conditions: MTCC 873, 24 h, read-out: DIZ
Shigella flexneri [13] = assay: Antimicrobial activity against Shigella flexneri MTCC 1457 at 100 ug/ml after 24 hrs by agar disc diffusion method; conditions: MTCC 1457, 24 h, read-out: DIZ
Shigella flexneri [14] = assay: Antimicrobial activity against Shigella flexneri MTCC 1457 at 50 ug/ml after 24 hrs by agar disc diffusion method; conditions: MTCC 1457, 24 h, read-out: DIZ
Klebsiella pneumoniae [15] = assay: Antimicrobial activity against Klebsiella pneumoniae MTCC 3384 at 100 ug/ml after 24 hrs by agar disc diffusion method; conditions: MTCC 3384, 24 h, read-out: DIZ
Klebsiella pneumoniae [16] = assay: Antimicrobial activity against Klebsiella pneumoniae MTCC 3384 at 50 ug/ml after 24 hrs by agar disc diffusion method; conditions: MTCC 3384, 24 h, read-out: DIZ
Escherichia coli [17] = assay: Antimicrobial activity against Escherichia coli MTCC 724 at 100 ug/ml after 24 hrs by agar disc diffusion method; conditions: MTCC 724, 24 h, read-out: DIZ
Escherichia coli [18] = assay: Antimicrobial activity against Escherichia coli MTCC 724 at 50 ug/ml after 24 hrs by agar disc diffusion method; conditions: MTCC 724, 24 h, read-out: DIZ
Staphylococcus aureus [19] = assay: Antimicrobial activity against Staphylococcus aureus MTCC 96 at 100 ug/ml after 24 hrs by agar disc diffusion method; conditions: MTCC 96, 24 h, read-out: DIZ
Staphylococcus aureus [20] = assay: Antimicrobial activity against Staphylococcus aureus MTCC 96 at 50 ug/ml after 24 hrs by agar disc diffusion method; conditions: MTCC 96, 24 h, read-out: DIZ
Bacillus cereus [21] = assay: Antimicrobial activity against Bacillus cereus MTCC 8372 at 100 ug/ml after 24 hrs by agar disc diffusion method; conditions: MTCC 8372, 24 h, read-out: DIZ
Bacillus cereus [22] = assay: Antimicrobial activity against Bacillus cereus MTCC 8372 at 50 ug/ml after 24 hrs by agar disc diffusion method; conditions: MTCC 8372, 24 h, read-out: DIZ
[23] = Antioxidant activity against ferric chloride-induced lipid peroxidation using egg lecithin at 50 ug/ml after 1 hr
[24] = Antioxidant activity against ferric chloride-induced lipid peroxidation using egg lecithin at 100 ug/ml after 1 hr
[25] = Antioxidant activity against ferric chloride-induced lipid peroxidation using egg lecithin at 10 ug/ml after 1 hr
[26] = Antioxidant activity assessed as reducing power of ferric ion at 50 ug/ml after 20 mins; design: scale not given: the % may be the effect or the level left
[27] = Antioxidant activity assessed as reducing power of ferric ion at 100 ug/ml after 20 mins; design: scale not given: the % may be the effect or the level left
[28] = Antioxidant activity assessed as reducing power of ferric ion at 10 ug/ml after 20 mins; design: scale not given: the % may be the effect or the level left
[29] = tested on: Radical scavenging activity; assay: Antioxidant activity assessed as DPPH free radical scavenging activity at 50 ug/ml after 20 mins
[30] = tested on: Radical scavenging activity; assay: Antioxidant activity assessed as DPPH free radical scavenging activity at 100 ug/ml after 20 mins
[31] = tested on: Radical scavenging activity; assay: Antioxidant activity assessed as DPPH free radical scavenging activity at 10 ug/ml after 20 mins

| MIC (Aspergillus flavus [2]) [mg/L] | MIC (Aspergillus niger [3]) [mg/L] | MIC (Shigella flexneri [4]) [mg/L] | MIC (Escherichia coli [5]) [mg/L] | MIC (Klebsiella pneumoniae [6]) [mg/L] | MIC (Staphylococcus aureus [7]) [mg/L] | MIC (Bacillus cereus [8]) [mg/L] | SMILES | inhibition [1] [%] | zone of inhibition at 50 µg/mL (Aspergillus niger [9]) [mm] | zone of inhibition at 100 µg/mL (Aspergillus niger [10]) [mm] | zone of inhibition at 100 µg/mL (Aspergillus flavus [11]) [mm] | zone of inhibition at 50 µg/mL (Aspergillus flavus [12]) [mm] | zone of inhibition at 100 µg/mL (Shigella flexneri [13]) [mm] | zone of inhibition at 50 µg/mL (Shigella flexneri [14]) [mm] | zone of inhibition at 100 µg/mL (Klebsiella pneumoniae [15]) [mm] | zone of inhibition at 50 µg/mL (Klebsiella pneumoniae [16]) [mm] | zone of inhibition at 100 µg/mL (Escherichia coli [17]) [mm] | zone of inhibition at 50 µg/mL (Escherichia coli [18]) [mm] | zone of inhibition at 100 µg/mL (Staphylococcus aureus [19]) [mm] | zone of inhibition at 50 µg/mL (Staphylococcus aureus [20]) [mm] | further results |
| --- | --- | --- | --- | --- | --- | --- | --- | --- | --- | --- | --- | --- | --- | --- | --- | --- | --- | --- | --- | --- | --- |
| 10 (≈ 21.9 µM) | 10 (≈ 21.9 µM) | 15 (≈ 32.9 µM) | 20 (≈ 43.8 µM) | 20 (≈ 43.8 µM) | 15 (≈ 32.9 µM) | 10 (≈ 21.9 µM) | COc1ccc(C2=NN(c3ccccc3)C(c3noc(-c4ccc(OC)c(OC)c4)n3)C2)cc1 (configuration not stated) | 29.9 | 16 | 30 | 20 | 16 | 24 | 10 | 18 | 8 | 16 | 8 | 18 | 10 | zone of inhibition at 100 µg/mL (Bacillus cereus [21]): 16 mm; zone of inhibition at 50 µg/mL (Bacillus cereus [22]): 12 mm; inhibition [23]: 49%; inhibition [24]: 76%; inhibition [25]: 34%; Activity [26]: 23%; Activity [27]: 74%; Activity [28]: 13%; Activity [29]: 48%; Activity [30]: 67%; Activity [31]: 29% |
| 30 (≈ 96.7 µM) | 15 (≈ 48.3 µM) | 25 (≈ 80.6 µM) | 55 (≈ 177 µM) | 25 (≈ 80.6 µM) | 50 (≈ 161 µM) | 35 (≈ 113 µM) | COc1ccc(C2=NN(c3ccccc3)C(/C(N)=N/O)C2)cc1 (configuration not stated) | 23.8 | 10 | 12 | 10 | 5 | 10 | 6 | 9 | 6 | 8 | 3 | 12 | 2 | zone of inhibition at 100 µg/mL (Bacillus cereus [21]): 16 mm; zone of inhibition at 50 µg/mL (Bacillus cereus [22]): 4 mm; inhibition [23]: 16%; inhibition [24]: 14%; inhibition [25]: 10%; Activity [26]: 22%; Activity [27]: 62%; Activity [28]: 10%; Activity [29]: 33%; Activity [30]: 55%; Activity [31]: 18% |
| 10 (≈ 25.1 µM) | 10 (≈ 25.1 µM) | 10 (≈ 25.1 µM) | 10 (≈ 25.1 µM) | 15 (≈ 37.6 µM) | 20 (≈ 50.2 µM) | 25 (≈ 62.7 µM) | Oc1ccc(C2=NN(c3ccccc3)C(c3noc(-c4ccc(O)cc4)n3)C2)cc1 (configuration not stated) | 69.7 | 14 | 22 | 20 | 12 | 22 | 14 | 16 | 10 | 20 | 12 | 12 | 8 | zone of inhibition at 100 µg/mL (Bacillus cereus [21]): 10 mm; zone of inhibition at 50 µg/mL (Bacillus cereus [22]): 6 mm; inhibition [23]: 58%; inhibition [24]: 78%; inhibition [25]: 34%; Activity [26]: 30%; Activity [27]: 76%; Activity [28]: 12%; Activity [29]: 47%; Activity [30]: 86%; Activity [31]: 31% |
| 10 (≈ 22.6 µM) | 5 (≈ 11.3 µM) | 15 (≈ 33.9 µM) | 25 (≈ 56.5 µM) | 25 (≈ 56.5 µM) | 20 (≈ 45.2 µM) | 15 (≈ 33.9 µM) | COc1ccc(-c2nc(C3CC(c4ccc(O)cc4)=NN3c3ccccc3)no2)cc1OC (configuration not stated) | 58.5 | 18 | 26 | 20 | 14 | 18 | 10 | 12 | 8 | 12 | 7 | 18 | 8 | zone of inhibition at 100 µg/mL (Bacillus cereus [21]): 16 mm; zone of inhibition at 50 µg/mL (Bacillus cereus [22]): 10 mm; inhibition [23]: 45%; inhibition [24]: 73%; inhibition [25]: 32%; Activity [26]: 24%; Activity [27]: 75%; Activity [28]: 18%; Activity [29]: 53%; Activity [30]: 76%; Activity [31]: 31% |
| 10 (≈ 21.7 µM) | 10 (≈ 21.7 µM) | 15 (≈ 32.5 µM) | 20 (≈ 43.4 µM) | 15 (≈ 32.5 µM) | 25 (≈ 54.2 µM) | 20 (≈ 43.4 µM) | COc1ccc(-c2nc(C3CC(c4ccc(Cl)cc4)=NN3c3ccccc3)no2)cc1OC (configuration not stated) | 53.5 | 14 | 27 | 21 | 14 | 16 | 10 | 11 | 9 | 12 | 8 | 12 | 6 | zone of inhibition at 100 µg/mL (Bacillus cereus [21]): 14 mm; zone of inhibition at 50 µg/mL (Bacillus cereus [22]): 8 mm; inhibition [23]: 52%; inhibition [24]: 73%; inhibition [25]: 30%; Activity [26]: 29%; Activity [27]: 75%; Activity [28]: 14%; Activity [29]: 59%; Activity [30]: 86%; Activity [31]: 30% |
| 15 (≈ 34.8 µM) | 15 (≈ 34.8 µM) | 25 (≈ 58 µM) | 35 (≈ 81.2 µM) | 25 (≈ 58 µM) | 30 (≈ 69.6 µM) | 35 (≈ 81.2 µM) | COc1ccccc1-c1nc(C2CC(c3ccc(Cl)cc3)=NN2c2ccccc2)no1 (configuration not stated) | 56.8 | 10 | 20 | 10 | 9 | 8 | 6 | 8 | 6 | 8 | 4 | 10 | 5 | zone of inhibition at 100 µg/mL (Bacillus cereus [21]): 8 mm; zone of inhibition at 50 µg/mL (Bacillus cereus [22]): 4 mm; inhibition [23]: 38%; inhibition [24]: 67%; inhibition [25]: 21%; Activity [26]: 23%; Activity [27]: 68%; Activity [28]: 12%; Activity [29]: 30%; Activity [30]: 64%; Activity [31]: 24% |
| 15 (≈ 41.2 µM) | 20 (≈ 54.9 µM) | 55 (≈ 151 µM) | 40 (≈ 110 µM) | 50 (≈ 137 µM) | 55 (≈ 151 µM) | 35 (≈ 96 µM) | c1ccc(-c2cc(-c3noc(-c4ccccc4)n3)n(-c3ccccc3)n2)cc1 | 37 | 9 | 18 | 10 | 10 | 9 | 3 | 6 | 3 | 6 | 4 | 6 | 3 | zone of inhibition at 100 µg/mL (Bacillus cereus [21]): 8 mm; zone of inhibition at 50 µg/mL (Bacillus cereus [22]): 5 mm; inhibition [23]: 40%; inhibition [24]: 67%; inhibition [25]: 26%; Activity [26]: 14%; Activity [27]: 65%; Activity [28]: 10%; Activity [29]: 28%; Activity [30]: 39%; Activity [31]: 18% |

Source: ChEMBL document CHEMBL2406981, “Novel pyrazoline amidoxime and their 1,2,4-oxadiazole analogues: synthesis and pharmacological screening” (Bioorg Med Chem Lett, 2013)
